# Earlier results in US20170290285A1, “HIGH REBAUDIOSIDE-C PLANT VARIETAL AND COMPOSITIONS EXTRACTED THEREFROM WITH HIGH REBAUDIOSIDE-C AND TOTAL STEVIOL GLYCOSIDE CONTENT” (GLG Life Tech Corporation, priority 2014, published 2017).
# Legend:
# [1] = heating at high temperature, cooking or barbecuing
# [2] = for Relative sweetness: Table 1
compound,measurement,setting,value
C[C@H](CC[C@@H](O[C@@H]1O[C@H](CO[C@@H]2O[C@H](CO)[C@@H](O)[C@H](O)[C@H]2O)[C@@H](O)[C@H](O)[C@H]1O[C@@H]1O[C@H](CO)[C@@H](O)[C@H](O)[C@H]1O)C(C)(C)O)[C@H]1CC[C@@]2(C)[C@@H]3CC=C4[C@@H](CC[C@H](O[C@@H]5O[C@H](CO[C@@H]6O[C@H](CO)[C@@H](O)[C@H](O)[C@H]6O)[C@@H](O)[C@H](O)[C@H]5O)C4(C)C)[C@]3(C)[C@H](O)C[C@]12C [Mogroside V],effect of heating on flavor,[1],does not affect the flavor
same,"sweetness, times that of sugar","[2]; versus sugar, b159",about 300 times
C=C1C[C@@]23CC[C@H]4[C@@](C)(CCC[C@@]4(C)C(=O)[O-])[C@@H]2CC[C@]1(O[C@@H]1O[C@@H](CO)[C@@H](O)[C@H](O)[C@@H]1O[C@@H]1O[C@@H](CO)[C@@H](O)[C@H](O)[C@@H]1O)C3.[Na+] [Stevlolbioside],"Solubility in water, %",,0.03%
same,Relative sweetness,[2],90
Rebaudioside C,"sweetness, × of sugar","[2]; versus sugar, list b13-b15",150-200 × of sugar
Rubusoside,Relative sweetness,[2],110
